Laboratory results taken from US5001149A, “Azadirachtin derivative insecticides” (NPI, priority 1987, dated 1991).
≈ marks a conversion by molar mass, not a printed value. Entries after “also recorded” stand apart in the source; their conditions may differ.

Key:
insects [1] = experiment: Antifeedant function; conditions: in vivo
[2] = system: fifth-instar Heliothis virescens larvae; experiment: Relative activity of UV-irradiated compounds in inhibiting adult development; assay type: in vivo; conditions: for Relative activity, inhibiting adult development: relative to non-irradiated
Description: (§1) Azadirachtin and its derivatives listed above (1.0 mg/ml absolute ethanol) were placed individually in capped quartz NMR tubes (5×180 mm) and were irradiated with two UV germicidal lights (GE, G30T8, 200-280 nm, 30 W) 1.8 m from the source at room temperature for up to 400 h. The controls were identical samples protected from exposure to UV radiation by wrapping with aluminum foil. At selected time intervals, aliquots from both the controls (non-irradiated) and irradiated samples were removed for high-performance liquid chromatography (HPLC) analysis (vide infra) and bioassay.
(§2) Individual larvae were injected per os on the first day of the fifth instar with 1.0 μg of one of the either irradiated or non-irradiated compounds dissolved in 1.0 μl of 75% aqueous ethanol.
(§3) Relative activity of azadirachtin, 3deacetylazadirachtin,
22,23dihydroazadirachtin, 2',3',22,23tetrahydroazadirachtin, all of which
had been exposed for 15, 30, 90, 200, and 400 hours to UV radiation, in
inhibiting the adult development of fifthinstar Heliothis virescens
(§4) larvae. Relative activity is defined as the percentage of larvae injected
relative to the percentage injected with its nonirradiated counterpart

insects [3] = conditions: Kubo & Klocke and other literature; cited from earlier work
[4] = system: fifth-instar Heliothis virescens larvae; experiment: Relative activity of UV-irradiated compounds in inhibiting pupal development (pupation); assay type: in vivo; conditions: for Relative activity, inhibiting pupal development: relative to non-irradiated
Description: as §1, §2, §3
22,23dihydroazadirachtin, and 2',3',22,23tetrahydroazadirachtin, all of
which had been exposed for 15, 30, 90, 200, and 400 hours to UV radiation
inhibiting the pupal development of fifthinstar Heliothis virescens
as §4

[5] = Stability to UV irradiation by reversed phase HPLC; assay type: physicochemical
Description: Stability of Azadirachtin derivatives was determined as follows:
as §1
Analytical reversed phase HPLC was performed on a phenyl (5 μm) column run isocratically with acetonitrile-water (3:7) (Yamasaki et al.) Peaks were detected at 214 nm. The irradiated samples were compared with their corresponding non-UV-irradiated controls by measuring the height of the peak eluting at the appropriate Rt for each irradiated compound relative to each one's non-irradiated control. Results are expressed as the percent of the initial sample concentration remaining relative to the control. Each time point was done in at least triplicate fashion.

[6] = system: fifth-instar Heliothis virescens larvae; experiment: Pupal and adult development of fifth-instar larvae injected orally with non-irradiated compounds; assay type: in vivo
Description: as §2
Successful and unsuccessful pupal and adult development of fifthinstar
Heliothis Virescens larvae injected orally with 1.0 microgram of either
azadirachtin, 3deacetylazadirachtin, 22,23dihydroazadirachtin, or
2',3',22,23tetrahydroazadirachtin.

[7] = system: first-instar Heliothis virescens larvae; experiment: Mortality and growth inhibition in first-instar Heliothis virescens larvae fed in an artificial diet; assay type: in vivo
Text: Mortality and growth inhibition in first-instar Heliothis
virescens larvae fed azadirachtin and eight derivatives in an
^b LC50 values are the concentrations (ppm) causing 50%
^c EC50 values are the concentrations (PPM) causing 50% growth
^d Numbers in parentheses are the 95% confidence limits determined
using the methods of Litchfield and Wilcoxon, J. Pharmacol. Exp. Ther.

[8] = 1.0 microgram per os, fifth instar, non-irradiated

C/C=C(\C)C(=O)O[C@H]1C[C@@H](OC(C)=O)[C@@]2(C(=O)OC)CO[C@H]3[C@@H](O)[C@@](C)([C@]45O[C@@]4(C)[C@H]4C[C@@H]5O[C@@H]5OC=C[C@@]54O)[C@H]4[C@]1(CO[C@]4(O)C(=O)OC)[C@@H]32 [Compound 1, azadirachtin]
antifeedant function, in words (insects [1]): function as antifeedants | Relative activity, inhibiting adult development ([2]; 15 h UV): 101.3% | Relative activity, inhibiting adult development ([2]; 30 h UV): 101.3% | Relative activity, inhibiting adult development ([2]; 90 h UV): 97.3% | ability to inhibit larvae from reaching the adult stage, in words ([2]; 200 h UV): declined slightly | Relative activity, inhibiting adult development ([2]; 200 h UV): 89.7% | Relative activity, inhibiting adult development ([2]; 400 h UV): 81.1% | ecdysis inhibitory activity, in words (insects [3]): potent ecdysis inhibitory activity; also recorded: the same ecdysis inhibitory activity | Relative activity, inhibiting pupal development ([4]; 15 h UV): 98.6% | Relative activity, inhibiting pupal development ([4]; 30 h UV): 98.9% | activity retained, in words ([4]; 90 h UV): retained full activity | Relative activity, inhibiting pupal development ([4]; 90 h UV): 85.7% | ability to inhibit pupation, in words ([4]; 200 h UV): did decline | Relative activity, inhibiting pupal development ([4]; 200 h UV): 74.2% | ability to inhibit pupation, in words ([4]; 400 h UV): An even greater decline | activity retained ([4]; 400 h UV): approximately 50% | Relative activity, inhibiting pupal development ([4]; 400 h UV): 60.0% | ability to inhibit pupation, in words ([4]; up to 90 h UV): not appreciably reduced | degradation, in words ([5]; 400 h UV): none of the three compounds remained in their original state | half-life ([5]; UV 200-280 nm, absolute ethanol, room temperature, read-out: T1/2 of UV degradation (converted)): 25 h | UV stability, in words ([5]; UV exposure up to 400 h): UV-labile | reaction order of UV degradation, in words ([5]; UV irradiation): degraded in a first-order reaction | degraded at 90 h ([5]; absolute ethanol, 90 h UV, read-out: compound degraded): > 80% | Adults Deformed, % [6, 8]: 0.7% | Adults, % [6, 8]: 1.3% | Number Adults [6, 8]: 2 | Number Adults Deformed [6, 8]: 1 | Number Pupae [6, 8]: 10 | Number Unsuccessful Larvae-Pupae [6, 8]: 5 | Number Unsuccessful Pupae-Adult [6, 8]: 0 | Pupae, % [6, 8]: 6.7% | Unsuccessful Larvae-Pupae, % [6, 8]: 3.4% | Unsuccessful Pupae-Adult, % [6, 8]: 0% | inhibition of pupation, in words ([6]; 1.0 microgram per os, non-irradiated): equally effective in inhibiting pupation | mortality at 0.001 mg ([6]; Heliothis virescens, light or radiation study, po, read-out: % Mortality Prior to Adult Stage): 98.7% | LC50 ([7]; Heliothis virescens, po, read-out: LC50 (concentration causing 50% mortality)): 0.8 µg/mL (≈ 1.11 µM) | EC50 (concentration causing 50% growth inhibition) ([7]; first-instar larvae, artificial diet, in parentheses 95% confidence limits): 0.07 (0.05-0.10) ppm
